Reference: PubChem BioAssay AID623867 (Sanford-Burnham Center for Chemical Genomics, 2012)
Active and inactive are the calls of the source.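 How the source made its calls: active means mean IC50 of at most 10 µM; inactive means the rest.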

Tested on: H9c2 cardiomyocytes, H2O2 injury protection, ATP luminescence, 2 h
Test: H9c2 survival under peroxide injury – cell-based, hydrogen peroxide, ATP luminescence, SAR follow-up (AID 623867)

Row | Structure (SMILES) | IC50
1 | COCCNC(=O)C(c1ccc(O)cc1)N(C(=O)c1snc(C(N)=O)c1N)c1ccccc1F (stereo not given) | > 79 µM (inactive)
2 | COc1cc(-c2cc(C(=O)Nc3cccc(C(C)=O)c3)c3ccccc3n2)cc(OC)c1OC | 8.45 µM
3 | Cc1ccc2cc(CN(C)S(=O)(=O)c3ccc(F)cc3)c(=O)[nH]c2c1 | > 79 µM (inactive)
4 | O=C(C(=O)N1CCCCC1)c1c(-c2ccccc2)[nH]c2ccccc12 | > 79 µM (inactive)
5 | COc1ccccc1N1C(=O)c2ccccc2N2C(=O)c3c(ccc(OC)c3OC)C12 (stereo not given) | 30.4 µM (inactive)
6 | COc1ccc(N2C(=O)c3ccccc3N3C(=O)c4c(ccc(OC)c4OC)C23)cc1 (stereo not given) | 23.4 µM (inactive)
7 | CCCn1c(SC(C(=O)Nc2cccc(OC)c2)c2ccccc2)nc2ccccc2c1=O (stereo not given) | > 79 µM (inactive)
8 | Cc1ccc2cc(CN(Cc3cccnc3)S(=O)(=O)c3ccc(F)cc3)c(=O)[nH]c2c1 | > 79 µM (inactive)
9 | COc1ccc(-c2cc(C(=O)NCc3ccco3)c3ccccc3n2)cc1OC | 41 µM
10 | COc1ccc2c(=O)c(C(=O)N3CCN(S(=O)(=O)c4c(C)cc(C)cc4C)CC3)c[nH]c2c1 | > 79 µM (inactive)
11 | CCN(CC)C(=O)C(=O)c1c(-c2ccccc2)[nH]c2ccccc12 | > 79 µM (inactive)
12 | O=C(C(=O)N1CCCC1)c1c(-c2ccccc2)[nH]c2ccccc12 | > 79 µM (inactive)
13 | CCCN(CC(=O)Nc1ccccc1OC)C(=O)c1cc(-c2cccs2)nn1-c1ccccc1 | > 79 µM (inactive)
14 | CCN(CC)S(=O)(=O)c1cc(C(=O)N2CCN(Cc3cccc4cccnc34)CC2)ccc1C | > 79 µM (inactive)
15 | COc1ccc(-n2cc(-c3ccccc3)c3c(N4CCCCC4)ncnc32)cc1 | > 79 µM (inactive)
16 | Cc1ccc(S(=O)(=O)N(Cc2cccnc2)Cc2cc3ccccc3[nH]c2=O)cc1 | > 79 µM (inactive)
17 | CC(C)CCNC(=O)C(c1ccc(O)cc1)N(C(=O)c1snc(C(N)=O)c1N)c1ccccc1F (stereo not given) | > 79 µM (inactive)
18 | Cc1ccccc1N(C(=O)c1snc(C(N)=O)c1N)C(C(=O)NCc1ccc(F)cc1)c1ccc(O)cc1 (stereo not given) | > 79 µM (inactive)

Row | Structure (SMILES) | IC50
19 | O=C1c2ccccc2N2C(=O)c3ccccc3[C@H]2N1c1ccccc1 | 29.4 µM (inactive)
20 | COc1cccc(CN(C)C(=O)c2cc(-c3ccc(OC)c(OC)c3)nc3ccccc23)c1 | 10.7 µM (inactive)
21 | O=c1[nH]c2ccccc2cc1CN(Cc1ccco1)S(=O)(=O)c1ccc(F)cc1 | > 79 µM (inactive)
22 | COc1ccc2cc(C(=O)N3CCN(S(=O)(=O)c4cc(C)ccc4C)CC3)c(C)nc2c1 | > 79 µM (inactive)
23 | COc1ccc(-n2cc(-c3ccccc3)c3c(NCc4ccccc4)ncnc32)cc1 | > 79 µM (inactive)
24 | Cc1ccc(C)c(S(=O)(=O)N2CCN(C(=O)c3cc4cc(C)ccc4nc3C)CC2)c1 | > 79 µM (inactive)
25 | COc1ccc(-n2cc(-c3ccccc3)c3c(N4CCCC4)ncnc32)cc1 | > 79 µM (inactive)
26 | Cc1ccc(-c2[nH]c3ccccc3c2C(=O)C(=O)N(C)C)cc1 | > 79 µM (inactive)
27 | COc1ccc(-c2cc(C(=O)NCc3ccccc3)c3ccccc3n2)cc1OC | > 79 µM (inactive)
28 | COc1ccc(-c2cc(C(=O)N(C)C)c3ccccc3n2)cc1OC | > 79 µM (inactive)
29 | COCCn1c(SC(C(=O)Nc2cc(C)ccc2C)c2ccccc2)nc2ccccc2c1=O (stereo not given) | > 79 µM (inactive)
30 | COc1cccc(NC(=O)CN(C)C(=O)c2cc(-c3cccs3)nn2-c2ccccc2)c1 | > 79 µM (inactive)
31 | COc1cccc(CN(C)C(=O)c2cc(-c3ccccc3)nc3ccc(C)cc23)c1OC | > 79 µM (inactive)
32 | COc1ccc2c(c1OC)C(=O)N1c3ccccc3C(=O)N(c3ccc(F)cc3)C21 (stereo not given) | 33.2 µM (inactive)
33 | COc1ccc2c(c1OC)C(=O)N1c3ccccc3C(=O)N(c3cccc(Br)c3)C21 (stereo not given) | 10.7 µM (inactive)
34 | COc1ccc(-c2cc(C(=O)N(C)Cc3ccc(OC)c(OC)c3OC)c3ccccc3n2)cc1OC | 10.1 µM (inactive)
35 | COc1ccc2c(c1OC)C(=O)N1c3ccccc3C(=O)N(c3ccccc3C)C21 (stereo not given) | 58.5 µM (inactive)
